Article PMC9020721, “Characterization of BLUF-photoreceptors present in Acinetobacter nosocomialis” (PLoS ONE, 2022)

Tests used:
[1] = target: T1, AnBLUF46 (Acinetobacter nosocomialis, UniProt A0AA36NWK2); experiment: UV-vis absorption and fluorescence emission of the co-purified flavin; format: binding; conditions: 20 mM Tris-HCl, 200 mM NaCl, pH 8.0, 15 °C; flavin as purified with the protein, fully oxidized; flavin identity assigned by the authors, no separate analysis
T1 construct: gene ANICBIBUN_11750; full length, 147 residues, N-terminal His-tag, pET28-TEV, E. coli BL21 (pLysS), Ni-NTA; tag cleavage not mentioned
T1 sequence (A0AA36NWK2 1-147): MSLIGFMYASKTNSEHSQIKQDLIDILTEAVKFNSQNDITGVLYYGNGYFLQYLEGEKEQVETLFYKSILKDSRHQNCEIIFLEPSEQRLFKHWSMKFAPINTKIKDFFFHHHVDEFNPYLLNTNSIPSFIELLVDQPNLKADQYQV

[2] = target: T2, AnBLUF65 (Acinetobacter nosocomialis, UniProt A0AA36P071); experiment: as above; format: binding; conditions: 20 mM Tris-HCl, 200 mM NaCl, pH 8.0, 15 °C; flavin as purified with the protein, fully oxidized; flavin identity assigned by the authors, no separate analysis
T2 construct: gene ANICBIBUN_09924; full length, 156 residues, N-terminal His-tag, synthetic gene in pET28a(+), E. coli BL21 (pLysS), Ni-NTA
T2 sequence (A0AA36P071 1-156): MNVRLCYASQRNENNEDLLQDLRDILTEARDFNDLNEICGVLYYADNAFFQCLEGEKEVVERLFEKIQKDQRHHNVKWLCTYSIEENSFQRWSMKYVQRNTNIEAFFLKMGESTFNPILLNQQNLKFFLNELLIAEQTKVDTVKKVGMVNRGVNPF

In the case of `Cc1cc2nc3c(=O)[nH]c(=O)nc-3n(C[C@H](O)[C@H](O)[C@H](O)COP(=O)(O)OP(=O)(O)OC[C@H]3O[C@@H](n4cnc5c(N)ncnc54)[C@H](O)[C@@H]3O)c2cc1C` [FAD], the “UV-vis absorption and fluorescence emission of the co-purified flavin” value [1] was “blue-shifted compared with free FAD in the same working buffer” and the “UV-vis absorption and fluorescence emission of the co-purified flavin” value [2] was “blue-shifted compared with free FAD in the same working buffer”.
